# Results published in patent US5554620A, “Substituted 6,11-ethano-6,11-dihydrobenzo[b] quinolizinium salts and compositions and methods of use thereof” (Sterling Winthrop Inc., priority 1994, dated 1996).
# pKi: −log10 of the molar value.
# Target: PCP receptor
# Test: [3H]TCP radioreceptor assay (binding to PCP recognition sites)
# Set-up: species or system rat (male Sprague-Dawley, whole brain)
# Conditions: [3H]TCP approx. 1 nM, rat brain membranes; mean of at least two determinations
# Procedure, shortened: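 Rat whole-brain membranes (Tris-HCl, pH 7.7), 0.5 mg protein/tube, incubated with ~1 nM [3H]TCP for 25 min at room temperature; non-specific binding defined with 100 μM PCP. Bound ligand collected by filtration and counted by scintillation; Ki from at least two determinations, or % inhibition at 10 μM.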
row,SMILES,pKi
1,"Cn1ccc(C2(c3ccn(C)n3)CC3c4ccccc4C2c2cccc[n+]23)n1 (centres unmarked) [158(f), 6,11-ethano-12,12-di[3-(1-methylpyrazolyl)]-6,11-dihydrobenzo[b]quinolizinium chloride]",6.20
2,"COc1ncccc1C1(c2cccnc2OC)CC2c3ccccc3C1c1cccc[n+]12.[O-][Cl+3]([O-])([O-])[O-] (centres unmarked) [160(d), 6,11-ethano-12,12-di-(2-methoxypyridin-3-yl)-6,11-dihydrobenzo[b]quinolizinium perchlorate]",6.34
3,"c1ccc2c(c1)C1CC(c3cn[nH]c3)(c3cn[nH]c3)C2c2cccc[n+]21 (centres unmarked) [161(d), 6,11-ethano-12,12-di(pyrazol-4-yl)]-6,11-dihydrobenzo[b]quinolizinium perchlorate]",5.43
4,"C=C1C2c3ccccc3C(c3cccc[n+]32)C1(c1ccoc1)c1ccoc1 (centres unmarked) [162(d), 6,11-ethano-12,12-di(3-furyl)-13-methylene-6,11-dihydrobenzo[b]quinolizinium hexafluorophosphate]",8.64
5,"COc1ccc[n+]2c1C1c3ccccc3C2CC1(c1ccoc1)c1ccoc1 (centres unmarked) [164(e), 6,11-ethano-12,12-di(3-furyl)-1-methoxy-6,11-dihydrobenzo[b]quinolizinium chloride]",7.72
6,"CCOC(=O)C=CC(=O)Oc1cccc2c1C1c3cccc[n+]3C2CC1(c1ccoc1)c1ccoc1 (centres unmarked) [167(c), 6,11-ethano-12,12-di(3-furyl)-10-(OC(O)CH=CHCO2 Et)-6,11-dihydrobenzo[b]quinolizinium perchlorate]",8.11
7,"c1ccc2c(c1)C1CC(c3ncc[nH]3)(c3ncc[nH]3)C2c2cccc[n+]21 (centres unmarked) [173(e), 6,11-ethano-12,12-di(imidazol-2-yl)-6,11-dihydrobenzo[b]quinolizinium chloride]",5.78
8,Oc1cccc2c1C1c3cccc[n+]3C2CC1(c1cc[nH]n1)c1cc[nH]n1 (centres unmarked) [175(b)],6.92
9,"COC(=O)C12CC(c3ccoc3)(c3ccoc3)C(c3ccccc31)c1cccc[n+]12 (centres unmarked) [176(d), 6,11-ethano-12,12-di(3-furyl)-6-methoxycarbonyl-6,11-dihydrobenzo[b]quinolizinium chloride]",7.40
10,"CCOC(=O)CC(C)(C)C(=O)Oc1cccc2c1C1c3cccc[n+]3C2CC1(c1ccoc1)c1ccoc1 (centres unmarked) [178(d), 6,11-ethano-12,12-di(3-furyl)-10-(OC(O)C(CH3)2 CH2 CO2Et)-6,11-dihydrobenzo[b]quinolizinium chloride]",5.84
11,"COc1cccc2c1C1c3cccc[n+]3C2CC1(c1cc[nH]n1)c1cc[nH]n1 (centres unmarked) [179(b), 6,11-ethano-12,12-di(pyrazolyl-3-yl]-10-methoxy-6,11-dihydrobenzo[b]quinolizinium chloride]",6.59
12,"c1ccc2c(c1)C1CC(c3ccoc3)(c3ccoc3)C2c2c3ccccc3cc[n+]21 (centres unmarked) [180(g), 14,14-di(3-furyl)-8,13-ethano-8,13-dihydrodibenzo[a,g]quinolizinium chloride]",7.70
13,"OCc1cccc2c1C1c3cccc[n+]3C2CC1(c1ccoc1)c1ccoc1.[O-][Cl+3]([O-])([O-])[O-] (centres unmarked) [182(e), 6,11-ethano-12,12-di(3-furyl)-10-hydroxymethyl-6,11-dihydrobenzo[b]quinolizinium perchlorate]",6.80
14,"c1cc[n+]2c(c1)C1c3c(ccc4c3OCO4)C2CC1(c1ccoc1)c1ccoc1 (centres unmarked) [183(c), 6,11-ethano-12,12-di(3-furyl)-9,10-methylenedioxy-6,11-dihydrobenzo[b]quinolizinium chloride]",8.57
15,"Brc1cc2cn[nH]c2c2cc3cccc[n+]3cc12 [186(g), 7-bromo-9,10-pyrazolo-benzo[b]quinolizinium hexafluorophosphate]",6.91
16,"COc1c(Cl)ccc2c1C1c3cccc[n+]3C2CC1(c1ccoc1)c1ccoc1 (centres unmarked) [187(g), 6,11-ethano-12,12-di(3-furyl)-9-chloro-10-methoxy-6,11-dihydrobenzo[b]quinolizinium chloride]",7.20
17,"Oc1c(Cl)ccc2c1C1c3cccc[n+]3C2CC1(c1ccoc1)c1ccoc1 (centres unmarked) [188(c), 6,11-ethano-12,12-di(3-furyl)-9-chloro-10-hydroxy-6,11-dihydrobenzo]b]quinolizinium chloride]",7.63
18,"Clc1ccc2c(c1)C1c3cccc[n+]3C2CC1(c1ccn[nH]1)c1ccn[nH]1 (centres unmarked) [189(b), 6,11-ethano-12,12-di-(pyrazol-5-yl)]-9-chloro-6,11-dihydrobenzo[b]quinolizinium perchlorate]",7.65

row,SMILES,pKi
1,"Oc1cccc2c1C1c3cccc[n+]3C2CC1(c1cc[nH]c1)c1cc[nH]c1 (centres unmarked) [190(b), 6,11-ethano-12,12-di(3-pyrrolyl)-10-hydroxy-6,11-dihydrobenzo[b]quinolizinium chloride]",7.97
2,"Clc1cccc2[n+]1C1CC(c3ccoc3)(c3ccoc3)C2c2ccccc21.[O-][Cl+3]([O-])([O-])[O-] (centres unmarked) [192(g), 6,11-ethano-12,12-di(3-furyl)-4-chloro-6,11-dihydrobenzo[b]-quinolizinium perchlorate]",6.20
3,"CCCCCCCCOC(=O)CC(C)(C)C(=O)Oc1cccc2c1C1c3cccc[n+]3C2CC1(c1ccoc1)c1ccoc1 (centres unmarked) [194(d), 12,12-di(3-furyl)-10-(OC(O)C(CH3)2 CH2 C(O)OOctyl)-6,11-ethano-6,11-dihydrobenzo[b]quinolizinium chloride]",7.15
4,"Fc1ccc[n+]2c1C1c3ccccc3C2CC1(c1ccoc1)c1ccoc1.[O-][Cl+3]([O-])([O-])[O-] (centres unmarked) [197(d), 6,11-ethano-12,12-di(3-furyl)-1-fluoro-6,11-dihydrobenzo[b]quinolizinium perchlorate]",7.86
5,"Fc1ccc2c(c1)C1c3cccc[n+]3C2CC1(c1cc[nH]n1)c1cc[nH]n1 (centres unmarked) [198(b), 6,11-ethano-12,12-di-(pyrazol-3-yl)]-9-fluoro-6,11-dihydrobenzo-[b]quinolizinium chloride]",7.93
6,"c1ccc(C23c4ccccc4CC2C2c4ccccc4C3c3cccc[n+]32)cc1 (centres unmarked) [Example 1F, 6,11[[2',3']-3'-phenyl-indanyl]6,11-dihydrobenzo[b]quinolizinium hexafluorophosphate]",8.12
7,"c1ccc2c(c1)C1C3CCc4occc4C3(c3cc4ccccc4o3)C2c2cccc[n+]21 (centres unmarked) [Example 10(c), 6,11[[5',4']-4'-(2-benzofuryl)-4',5',6',7'-tetrahydrobenzofuryl]6,11-dihydrobenzo[b]quinolizinium hexafluorophosphate]",5.96
8,"CCOC1(c2ccoc2)CC2(C)c3ccccc3C1c1cccc[n+]12.[O-][Cl+3]([O-])([O-])[O-] (centres unmarked) [Example 13(a), 6,11-ethano-12-(3-furyl)-12-ethoxy-6-methyl-6,11-dihydrobenzo[b]quinolizinium perchlorate]",7.72
9,"CC1C2c3ccccc3C(c3cccc[n+]32)C1(c1ccccc1)c1ccccc1 (centres unmarked) [Example 18, 6,11-ethanol-12,12-diphenyl-13-methyl-6,11-dihydrobenzo[b]quinolizinium perchlorate]",7.71
10,"COc1cccc2c1C1c3cccc[n+]3C2CC1(c1ccccc1)c1ccccc1 (centres unmarked) [Example 26, 6,11-ethano-12,12-diphenyl-10-methoxy-6,11-dihydrobenzo[b]quinolizinium chloride]",7.49
11,"CCCCCCCC(=O)Oc1cccc2c1C1c3cccc[n+]3C2CC1(c1ccoc1)c1ccoc1 (centres unmarked) [Example 165, 6,11-ethano-12,12-di(3-furyl)-10-octanoyloxy-6,11-dihydrobenzo[b]quinolizinium chloride]",7.50
12,"CCOC(=O)CCC(=O)Oc1cccc2c1C1c3cccc[n+]3C2CC1(c1ccoc1)c1ccoc1 (centres unmarked) [Example 166, 6,11-ethano-12,12-di(3-furyl)-10-(3-ethoxycarbonyl)propionyloxy-6,11-dihydrobenzo-[b]quinolizinium chloride]",7.21
13,"Oc1ccc[n+]2c1C1c3ccccc3C2CC1(c1ccoc1)c1ccoc1 (centres unmarked) [Example 168(c), 6,11-ethano-12,12-di(3-furyl)-1-hydroxy-6,11-dihydrobenzo[b]quinolizinium chloride]",6.51
14,"CC(=O)Oc1cccc2c1C1c3cccc[n+]3C2CC1(c1ccoc1)c1ccoc1 (centres unmarked) [Example 169, 6,11-ethano-12,12-di(3-furyl)-10-acetyloxy-6,11-dihydrobenzo-[b]quinolizinium chloride]",8.45
15,"CC(=O)Oc1ccc[n+]2c1C1c3ccccc3C2CC1(c1ccoc1)c1ccoc1 (centres unmarked) [Example 170, 6,11-ethano-12,12-di(3-furyl)-1-acetyloxy-6,11-dihydrobenzo-[b]quinolizinium chloride]",6.63
16,"CCCCCCCCOc1cccc2c1C1c3cccc[n+]3C2CC1(c1ccoc1)c1ccoc1.[O-][Cl+3]([O-])([O-])[O-] (centres unmarked) [Example 172, 6,11-ethano-12,12-di(3-furyl)-10-octyloxy-6,11-dihydrobenzo[b]quinolizinium perchlorate]",5.47
17,"CC(C)(C)C(=O)Oc1cccc2c1C1c3cccc[n+]3C2CC1(c1ccoc1)c1ccoc1 (centres unmarked) [Example 174, 6,11-ethano-12,12-di(3-furyl)-10-trimethylacetyloxy-6,11dihydrobenzo-[b]quinolizinium chloride]",7.63
18,"Oc1cccc(C2(c3cccc(O)c3)CC3c4ccccc4C2c2cccc[n+]23)c1.[O-][Cl+3]([O-])([O-])[O-] (centres unmarked) [Example 177, 6,11-ethano-12,12-di(m-hydroxyphenyl)-6,11-dihydrobenzo[b]quinolizinium perchlorate]",7.86

# Same assay, conditions: [3H]TCP approx. 1 nM, rat brain membranes; mean of at least two determinations; hydrate
row,SMILES,pKi
1,"CC12CC(c3ccccc3)(c3ccccc3)C(c3ccccc31)c1cccc[n+]12 (centres unmarked) [Example 21, 6,11-ethano-12,12-diphenyl-6-methyl-6,11-dihydrobenzo[b]quinolizinium chloride hydrate]",7.89

# Same assay, conditions: inhibition of [3H]TCP binding at 10 μM
row,SMILES,[3H]TCP percent inhibition @ 10 μm [%]
1,"c1ccc2c(c1)C1CC(c3nc[nH]n3)(c3nc[nH]n3)C2c2cccc[n+]21 (centres unmarked) [159(h), 6,11-ethano-12,12-di-[3-(1,2,4-triazolyl)]-6,11-dihydrobenzo[b]quinolizinium chloride]",31
